Test results taken from patent EP0727938B1, “DEVICE AND METHOD FOR PHOTOACTIVATION” (Cerus Corporation, priority 1993, dated 1995).

Key:
human platelets = experiment: Platelet activation: GMP140 expression measured with CD62 antibody by flow cytometry; assay type: cell-based; details: for Activation, PMA Activated, Day 3: storage Day 3, PMA 10-^7 M; for Activation, PMA Activated, Day 5: storage Day 5, PMA 10-^7 M
Excerpt: When platelets become activated, an alpha granule membrane glycoprotein called GMP140 becomes exposed on the platelet surface. Less than (5%) of fresh, normal unstimulated platelets express detectable GMP 140 levels by flow cytometry. See generally M.J. Metzelaar, Studies on the Expression of Activation-Markers on Human Platelets (Thesis 1991).
To measure GMP140, a small aliquot of platelet rich plasma is placed in HEPES buffer containing a GMP140-binding antibody or control mouse IgG. CD62 is a commercially available monoclonal antibody which binds to GMP 140 (available from Sanbio, Uden, the Netherlands; Caltag Labs, So. San Francisco, CA, and Becton Dickinson, Mountain View, CA). After a fifteen minute incubation, Goat Anti-Mouse IgG conjugated to FITC is added to the tube in saturating amounts. Finally, the cells are diluted in isotonic saline, fixed with paraformaldehyde and analyzed on a FACSCAN™ (Becton Dickinson, Mountain View, CA). The positive control is made by adding Phorbol Myristate Acetate (PMA) to the test system at a final concentration of 10-^7 M.
In this example, CD62 was employed to measure the impact, if any, of irradiation alone on platelet activation. The antibody was stored in small aliquots (0.01 mg/ml) at -40°C prior to use. A mouse IgG control (0.05 mg/ml) (Becton Dickinson, Mountain View, CA #9040) 5X concentrated was employed. At time of use, this was diluted 1:5 in HEPES buffer. The secondary antibody was goat Anti-Mouse IgG conjugated to FITC (TAGO, Burlingame, CA #3506). This was stored in small aliquots at -20°C. Phorbol Myristate Acetate (PMA) (Sigma, St. Louis, MO) was stored at -40°C. At time of use, this was dissolved in DMSO (working concentration was 1.62 X 10^-5 M).
16% Paraformaldehyde (PFA) (Sigma, St. Louis, MO) was prepared by adding 16 grams paraformaldehyde to 100 ml de-ionized water. This was heated to 70°C, whereupon 3 M NaOH was added dropwise until the solution was clear. The solution was cooled and the pH was adjusted to 7.4 with 1 N HCl. This was filtered and stored. A commercially available isotonic buffer was used: Hematall Isotonic Diluent (Fisher # CS 606-20).
Following irradiation, the platelets were stored for 5 days. At specific time points, aliquots were taken and processed.
Processing involved adding an aliquot (e.g. 5 microliters) of platelet concentrate to each microcentrifuge tube containing the antibody and appropriate reagents and this was mixed very gently by vortex. The samples were incubated for 15 minutes at room temperature.
The Goat anti-Mouse IgG-FITC (diluted 1:10 in HEPES buffer) was added (5 microliters) to each tube and the solution was mixed by gentle vortex. The samples were incubated for an additional 15 minutes at room temperature.
Isoton II was added (1 ml) to each tube and mixed gently with a polypropylene disposable pipette. 8% PFA in HEPES (150 microliters) was added to each diluted sample to final 1%. The platelets were analyzed on the FACSCAN™.
Shorter Irradiation Times.

[1] = non activated 8-MOP; cited from earlier work
viruses = details: 300 ug/ml of 8-MOP, one hour or more of irradiation with ultraviolet light; cited from earlier work
[2] = Photochemical breakdown measured by reverse phase HPLC; assay type: physicochemical; details: Figure 7
[3] = tested on: single stranded 5S ribosomal RNA; details: irradiation at 4°C compared to 20°C; cited from earlier work

COc1c2occc2cc2ccc(=O)oc12 [8-MOP, 8-methoxypsoralen]
damage to platelets after irradiation in the presence of psoralen (human platelets; 10 ug/ml 8-MOP, five minutes UVA, 25°C, stored for 5 days): without damage to the cells
mutagenicity [1]: not mutagenic
inactivation of viruses (viruses): can effectively inactivate viruses

Cc1oc2c(C)c3oc(=O)cc(C)c3cc2c1CN [AMT, 4'-aminomethyl-4,5',8-trimethylpsoralen]
degradation (photochemical breakdown) [2]: degrades more quickly than 8-MOP

Cc1oc2c(C)c3oc(=O)cc(C)c3cc2c1CO [HMT, 4'-hydroxymethyl-4,5',8-trimethylpsoralen]
enhancement of covalent addition of HMT to 5S rRNA [3]: two fold

CCCCCCCCCCCCCC(=O)O[C@@H]1[C@@H](C)[C@@]2(O)[C@@H](C=C(CO)C[C@]3(O)C(=O)C(C)=C[C@@H]23)[C@@H]2C(C)(C)[C@]12OC(C)=O [PMA, Phorbol Myristate Acetate]
Activation, PMA Activated, Day 3 (human platelets; Control (no irradiation)): 85%
Activation, PMA Activated, Day 5 (human platelets; Control (no irradiation)): 89%
Activation, PMA Activated, Day 3 (human platelets; UV 5'): 87%
Activation, PMA Activated, Day 5 (human platelets; UV 5'): 86%
Activation, PMA Activated, Day 3 (human platelets; UV 10'): 84%
Activation, PMA Activated, Day 5 (human platelets; UV 10'): 79%
